Data published in patent US4912132A, “Novel substances KS-504a, KS-504b, KS-504d and KS-504e and process for their preparation” (Kyowa Hakko Kogyo Co., Ltd., priority 1987, dated 1990).
“Also recorded” adds a separate entry of the source.

What was measured:
rabbit aorta = experiment: inhibition of contraction using extirpated blood vessel preparations (vasodilative activity); details: contraction by 20 mM KCl, added 30 minutes before; for inhibition at 10 µg/mL: final concentration 10.0 μg/ml
Protocol: The vosodilative activity of KS-504a, KS-504b and KS-504d is explained below, referring to Experimental Example 1 on inhibition of contraction using extirpated blood vessel preparations.
White bastard rabbits (male, 2-3 kg) were incised along the abdominal median line. The aorta was cut out with a length of about 2-2.5 cm from the venter, and spiral strips with a width of 3-4 mm were prepared therefrom. The strips were ligated with silk yarn at both ends, and the lower end was connected to a stationary rod, whereas the upper end was connected to a tension transducer (TB-612T, a product of Nippon Koden Co., Ltd.). The strips were suspended under an initial tension of 1.5 g. The strips were soaked in a Krebs-Henseleit solution at 32° C. whose composition in g/l was NaCl: 6.92, KCl: 0.35, MgSO4.7H2 O: 0.29, CaCl2.2H2 O: 0.37, KH2 PO4 : 0.16, NaHCO3 :2.1 and glucose: 1.0 in a Magnus tube, and a gas (95% O2 and 5% CO2) was introduced therein. After being stabilized for 1 to 2 hours, the preparations were used for the experiment. Potassium chloride was added to the Magnus tube to a final concentration of 20 mM. The resulting contraction reaction was recorded on a polygraph (AM-6000, a product of Nippon Koden Co., Ltd.) in equal scales through the tension transducer. KS-504a, KS-504b and KS-504d were each dissolved in dimethyl sulfoxide to a concentration of mg/ml, and the solutions were properly diluted with a Krebs-Henseleit solution and added to the Magnus tube 30 minutes before the application of the contracting
*The rate of inhibition of contraction was calculated according to the
Rate of inhibition of contraction (%)

[1] = solubility and stability in alkaline medium (physicochemical properties); details: for stability in basic substances / alkaline water: basic substances such as pyridine, monoethanolamine, and alkaline water; for Solubility: Also soluble in basic substances: soluble but readily decomposed; for Solubility: Soluble in: solvents listed as Soluble; for Solubility: Insoluble in: solvents listed as Insoluble
[2] = minimal lethal dose in mice; assay type: in vivo; details: p.o.
[3] = tested on: rat peritoneal exudate cells; experiment: inhibition of histamine secretion from rat peritoneal exudate cells; assay type: cell-based; details: 10 min, phosphatidyl-L-serine and concanavalin A, 37° C, read-out: Rate of suppression of histamine secretion
Protocol: Influence on histamine secretion from rat peritoneal exudate cells
Rats with body weights of 150-180 g were killed under dry ether anesthesia by exsanguination, and mast cell medium prepared according to the method of Sullivan, et al. J. Immunol. 114, 1473 (1975)](hereinafter abbreviated as MCM, composition: 150mM NaCl, 3.7 mM KCl, 3 mM Na2 HPO4, 3.5 mM KH2 PO4, 1 mM CaCl2, 5.6 mM glucose, 0.1% bovine serum albumin, 10 U/ml heparin) was injected intraperitoneally into the animals at 6 ml/animal. The abdominal parts were massaged for two minutes, and then cut open to sample exuded solution in the abdominal cavities. The exuded solution collected from 6 rats was centrifuged a 100×g for 5 minutes at 4° C, and the precipitate was mixed with an appropriate amount of water-cooled MCM, and washed three times to prepare a cell suspension (peritoneal exudate cells, hereinafter abbreviated as PEC) containing mast cells at a final concentration of about 3×10^4 cells/ml. Identification of mast cells was carried out by staining intracellular granules with 0.05% Toluidine Blue. Then, 1 ml of the thus obtained PEC was preincubated at 37° C for 10 minutes, and then admixed with 0.1 ml of test solutions at various concentrations and incubated for 10 minutes. The incubated mixtures were further admixed with 0.1 ml each of 100 μg/ml phosphatidyl-L-serine and 1000 μg/ml concanavalin A, followed by incubation for 15 minutes. The reaction was discontinued by addition of 3 ml of ice-cooled physiological saline solution, and the mixture was centrifuged at 1100×g for 10 minutes at 4° C. to obtain a supernatant and a residue. Histamine contents of the supernatant and the residue were measured by fluorometry according to the method of Komatsu [Allergy 27, 67 (1978)].
The histamine secretion rate was defined by a percentage of histamine content in the supernatant to total histamine content in the cells. The rate of suppression of histamine secretion by the test solution was calculated according to the following equation.
Rate of suppression of secretion (%) [formula]

[4] = Oryctolagus cuniculus, read-out: Rate of inhibition of contraction

| Structure (SMILES) | inhibition at 10 µg/mL (rabbit aorta; [4]) | inhibition at 30 µg/mL (rabbit aorta; Oryctolagus cuniculus, final concentration 30.0 μg/ml, read-out: Rate of inhibition of contraction) | stability in basic substances / alkaline water [1] | Solubility: Also soluble in basic substances [1] | Solubility: Soluble in [1] | inhibition at 0.1 µg/mL (rabbit aorta; Oryctolagus cuniculus, final concentration 0.1 μg/ml, read-out: Rate of inhibition of contraction) | inhibition at 1 µg/mL (rabbit aorta; Oryctolagus cuniculus, final concentration 1.0 μg/ml, read-out: Rate of inhibition of contraction) | inhibition at 3 µg/mL (rabbit aorta; Oryctolagus cuniculus, final concentration 3.0 μg/ml, read-out: Rate of inhibition of contraction) | minimal lethal dose [2] | Solubility: Insoluble in [1] | Rate of inhibition of contraction (rabbit aorta; final concentration 1.0 μg/ml) | Rate of inhibition of contraction (rabbit aorta; final concentration 3.0 μg/ml) | inhibition at 0.03 µg/mL ([3]; test solution 0.03 μg/ml) | inhibition at 0.1 µg/mL ([3]; test solution 0.1 μg/ml) | inhibition at 0.3 µg/mL ([3]; test solution 0.3 μg/ml) |
| --- | --- | --- | --- | --- | --- | --- | --- | --- | --- | --- | --- | --- | --- | --- | --- |
| OC1C(Cl)(Cl)C(=C(Cl)Cl)C(O)(C(Cl)Cl)C1(Cl)Cl (stereo not drawn) [KS-504d] | 6.9% | 91% | readily decomposed | pyridine, monoethanolamine, etc. and alkaline | acetone, ethyl acetate, acetonitrile; also recorded: benzene, methanol, chloroform; also recorded: hexane, water, acidic water |  |  |  |  |  |  |  |  |  |  |
| OC1C(Cl)(Cl)C(=C(Cl)Cl)C2(OC2Cl)C1(Cl)Cl (stereo not drawn) [KS-504a] |  |  | readily decomposed | pyridine, monoethanolamine, etc. and alkaline | methanol, n-butanol, chloroform; also recorded: acetone, ethyl acetate; also recorded: dimethylformamide, dimethylsulfoxide; also recorded: benzene, acetic acid, hexane | 37% | 59% | 82% | 300 mg/kg | water, acidic water |  |  |  |  |  |
| OC1C(Cl)(Cl)C(=C(Cl)Cl)C2(OC2Cl)C1(Cl)Cl (stereo not drawn) [KS-504b] | 100% |  | readily decomposed | pyridine, monoethanolamine, etc. and alkaline | methanol, chloroform, acetone, ethyl; also recorded: acetate, acetonotrile; also recorded: dimethylsulfoxide |  |  |  |  | water, acidic water | 76% | 80% |  |  |  |
| O=CC1=C(C(Cl)(Cl)Cl)C(Cl)(Cl)C(O)C1(Cl)Cl (stereo not drawn) [KS-504e] |  |  | readily decomposed | pyridine, monoethanolamine, etc. and alkaline | methanol, chloroform, acetone, ethyl; also recorded: acetate, acetonitrile; also recorded: dimethylsulfoxide |  |  |  |  | water, acidic water |  |  | 15% | 62% | 100% |
